Article PMC9313426, “CDI Exerts Anti-Tumor Effects by Blocking the FoxM1-DNA Interaction” (Biomedicines, 2022)

Target: T1, FoxM1 (Homo sapiens, UniProt Q08050)
T1 sequence (Q08050 222-360 limits assumed): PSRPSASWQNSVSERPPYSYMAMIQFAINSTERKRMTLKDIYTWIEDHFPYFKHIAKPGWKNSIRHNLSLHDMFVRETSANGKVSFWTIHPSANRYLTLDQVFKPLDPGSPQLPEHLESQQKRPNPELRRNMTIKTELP
Experiment: TR-FRET FoxM1-DBD/biotinylated dsDNA binding inhibition assay

| IC50 [µM] | SMILES |
| --- | --- |
| 4.9 ± 1.5 | CC(C)C1=C[C@@]23CC[C@@H]4[C@](C)(CCC[C@@]4(C)C(=O)O)[C@H]2C[C@@H]1[C@H]1C(=O)C=C(Cl)C(=O)[C@H]13 [CDI, (4aR,4bS,6aR,7R,10aR,10bR,12R,12aR)-3-Chloro-4,4a,5,6,6a,7,8,9,10,10a,10b,11,12,12a-tetradecahydro-7,10a-dimethyl-13-(1-methylethyl)-1,4-dioxo-1H-4b,12-ethenochrysene-7-carboxylic acid] |
| 3.7 ± 0.9 | Nc1c(C(=O)Nc2ccc(F)cc2)sc2nc(-c3cccs3)cc(C(F)(F)F)c12 [FDI-6] |
